Experiments:
[1] = molecular target: T1, Peroxisome proliferator-activated receptor gamma (Homo sapiens, UniProt P37231); assay: (§1) Transactivation of Gal4 fused human PPARgamma LBD expressed in African green monkey COS7 cells after 42 hrs by dual luciferase reporter gene assay; assay type: cell-based
T1 sequence (P37231 whole entry): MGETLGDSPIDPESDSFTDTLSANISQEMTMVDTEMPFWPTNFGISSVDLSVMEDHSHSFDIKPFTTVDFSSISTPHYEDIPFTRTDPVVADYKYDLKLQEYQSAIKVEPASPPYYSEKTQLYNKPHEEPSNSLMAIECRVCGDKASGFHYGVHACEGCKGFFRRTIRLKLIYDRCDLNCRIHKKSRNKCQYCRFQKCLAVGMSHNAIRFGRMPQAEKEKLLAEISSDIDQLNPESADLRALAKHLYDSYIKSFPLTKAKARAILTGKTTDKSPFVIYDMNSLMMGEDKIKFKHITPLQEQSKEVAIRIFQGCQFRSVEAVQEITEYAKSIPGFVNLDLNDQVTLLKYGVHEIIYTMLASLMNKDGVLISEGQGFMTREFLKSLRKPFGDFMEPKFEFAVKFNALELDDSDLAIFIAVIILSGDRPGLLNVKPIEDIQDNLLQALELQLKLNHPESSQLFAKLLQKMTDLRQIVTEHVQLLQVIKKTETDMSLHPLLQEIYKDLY

[2] = molecular target: T2, Peroxisome proliferator-activated receptor gamma (Homo sapiens) (UniProt P37231); assay: as §1; assay type: cell-based
T2 sequence (whole entry): T1 sequence (P37231 whole entry)

Structure (SMILES) | EC50 [1] | EC50 ([1]; read-out: EC50) [µM] | Activity [2]
CCCc1nc2cc(-c3cccc(Cl)c3)ccc2n1Cc1ccc(-c2ccccc2C(=O)O)cc1 | Not Active |  | 
CCCc1nc2ccc(-c3ccccc3Cl)cc2n1Cc1ccc(-c2ccccc2C(=O)O)cc1 |  | 1.39 | Dose-dependent effect
CCCc1nc2ccc(-c3ccc(OC)cc3)cc2n1Cc1ccc(-c2ccccc2C(=O)O)cc1 |  | 1.01 | Dose-dependent effect
CCCc1nc2ccc(-c3ccc(Cl)cc3)cc2n1Cc1ccc(-c2ccccc2C(=O)O)cc1 |  | 1.15 | Dose-dependent effect
CCCc1nc2cc(-c3ccccc3Cl)ccc2n1Cc1ccc(-c2ccccc2C(=O)O)cc1 |  | 0.93 | Dose-dependent effect
CCCc1nc2cc(-c3cccc(OC)c3)ccc2n1Cc1ccc(-c2ccccc2C(=O)O)cc1 |  | 0.29 | Dose-dependent effect
CCCc1nc2ccc(-c3cccc(OC)c3)cc2n1Cc1ccc(-c2ccccc2C(=O)O)cc1 |  | 1.35 | Dose-dependent effect
CCCc1nc2cc(-c3ccc(OC)cc3)ccc2n1Cc1ccc(-c2ccccc2C(=O)O)cc1 |  | 0.41 | Dose-dependent effect
CCCc1nc2ccccc2n1Cc1ccc(-c2ccccc2C(=O)O)cc1 |  | 6.44 | Dose-dependent effect
CCCc1nc2ccc(-c3cccc(O)c3)cc2n1Cc1ccc(-c2ccccc2C(=O)O)cc1 |  | 4.09 | Dose-dependent effect
CCCc1nc2cc(-c3ccc(Cl)cc3)ccc2n1Cc1ccc(-c2ccccc2C(=O)O)cc1 |  | 0.19 | Dose-dependent effect
CCCc1nc2cc(-c3ccc(O)cc3)ccc2n1Cc1ccc(-c2ccccc2C(=O)O)cc1 |  | 1.01 | Dose-dependent effect
CCCc1nc2c(C)cc(-c3nc4ccccc4n3C)cc2n1Cc1ccc(-c2ccccc2C(=O)O)cc1 |  | 4.97 | 
CCCc1nc2cc(-c3cccc(O)c3)ccc2n1Cc1ccc(-c2ccccc2C(=O)O)cc1 |  | 1.25 | Dose-dependent effect
CCCc1nc2ccc(-c3ccc(O)cc3)cc2n1Cc1ccc(-c2ccccc2C(=O)O)cc1 |  | 2.98 | Dose-dependent effect
CCCc1nc2ccc(-c3cccc(Cl)c3)cc2n1Cc1ccc(-c2ccccc2C(=O)O)cc1 |  | 0.77 | Dose-dependent effect
